Results from ChEMBL document CHEMBL1159108, “Synthesis and antimicrobial activity of 2-fluorophenyl-4,6-disubstituted [1,3,5]triazines” (2010).
≈ marks a conversion by molar mass, not a printed value.

Tests used:
Enterococcus faecium = test: Antibacterial activity against vancomycin-resistant Enterococcus faecium ATCC 49624; assay type: functional
[1] = tested on: Staphylococcus epidermidis; test: Antibacterial activity against methicillin-sensitive Staphylococcus epidermidis ATCC 155-U; assay type: functional
Bacillus cereus = test: Antibacterial activity against Bacillus cereus ATCC 13061; assay type: functional
Candida albicans [2] = test: Antifungal activity against Candida albicans ATCC 10231; assay type: functional
Candida albicans [3] = test: Antifungal activity against Candida albicans ATCC 10231
Enterococcus faecalis = test: Antibacterial activity against Enterococcus faecalis; assay type: functional
Staphylococcus aureus [4] = test: Antibacterial activity against vancomycin-resistant Staphylococcus aureus; assay type: functional
Staphylococcus aureus [5] = test: Antibacterial activity against methicillin-resistant Staphylococcus aureus; assay type: functional
Staphylococcus cohnii = test: Antibacterial activity against coagulase negative-susceptible Staphylococcus cohnii; assay type: functional
Staphylococcus warneri = test: Antibacterial activity against coagulase negative-susceptible Staphylococcus warneri; assay type: functional
Streptococcus pneumoniae [6] = test: Antibacterial activity against multidrug-resistant Streptococcus pneumoniae; assay type: functional
Streptococcus pneumoniae [7] = test: Antibacterial activity against Streptococcus pneumoniae; assay type: functional
Cutibacterium acnes = test: Antibacterial activity against Propionibacterium acnes; assay type: functional

SMILES | MIC (Enterococcus faecium) | MIC [1] | MIC (Bacillus cereus) | MIC (Candida albicans [2]) | MIC (Candida albicans [3]) | MIC (Enterococcus faecalis) | MIC (Staphylococcus aureus [4]) | MIC (Staphylococcus aureus [5]) | MIC (Staphylococcus cohnii) | MIC (Staphylococcus warneri) | MIC (Streptococcus pneumoniae [6]) | MIC (Streptococcus pneumoniae [7]) | MIC (Cutibacterium acnes)
NCCCCCNc1nc(Nc2cccc(F)c2)nc(-c2cncc(F)c2)n1 | 32 µg/mL (≈ 83 µM) | 32 µg/mL (≈ 83 µM) | 32 µg/mL (≈ 83 µM) | > 100 µg/mL | > 100 µg/mL |  |  |  |  |  |  |  | 
NCCCCCCNc1nc(Nc2cccc(F)c2)nc(-c2cccc(F)c2)n1 | 4 µg/mL (≈ 10 µM) | 2 µg/mL (≈ 5.02 µM) | 16 µg/mL (≈ 40.2 µM) | 16 µg/mL (≈ 40.2 µM) | 16 µg/mL (≈ 40.2 µM) |  |  |  |  |  |  |  | 
NCCCCCNc1nc(Nc2ccc(F)cc2)nc(-c2cccnc2)n1 | > 100 µg/mL | 16 µg/mL (≈ 43.5 µM) | > 100 µg/mL | > 100 µg/mL | > 100 µg/mL |  |  |  |  |  |  |  | 
NCCCCCNc1nc(Nc2cccc(F)c2)nc(-c2cc(F)cc(F)c2)n1 | 8 µg/mL (≈ 19.9 µM) | 4 µg/mL (≈ 9.94 µM) | 16 µg/mL (≈ 39.8 µM) | 16 µg/mL (≈ 39.8 µM) | 16 µg/mL (≈ 39.8 µM) |  |  |  |  |  |  |  | 
CC(C)(CN)CNc1nc(Nc2cccc(F)c2)nc(-c2cccc(F)c2)n1 | 8 µg/mL (≈ 20.8 µM) | 2 µg/mL (≈ 5.2 µM) | 8 µg/mL (≈ 20.8 µM) | 4 µg/mL (≈ 10.4 µM) |  |  |  |  |  |  |  |  | 
Fc1cccc(Nc2nc(NC3CCCNC3)nc(-c3cccc(F)c3)n2)c1 (centres undefined) | 4 µg/mL (≈ 10.5 µM) | 2 µg/mL (≈ 5.23 µM) | 8 µg/mL (≈ 20.9 µM) | 8 µg/mL (≈ 20.9 µM) | 8 µg/mL (≈ 20.9 µM) |  |  |  |  |  |  |  | 
CC1(C)CC(Nc2nc(Nc3cccc(F)c3)nc(-c3cccc(F)c3)n2)CC(C)(C)N1 | 4 µg/mL (≈ 9.12 µM) | 2 µg/mL (≈ 4.56 µM) | 4 µg/mL (≈ 9.12 µM) | 32 µg/mL (≈ 73 µM) |  |  |  |  |  |  |  |  | 
NCC1CCC(CNc2nc(Nc3cccc(F)c3)nc(-c3cccc(F)c3)n2)CC1 (centres undefined) | 8 µg/mL (≈ 18.8 µM) | 8 µg/mL (≈ 18.8 µM) | 8 µg/mL (≈ 18.8 µM) | 64 µg/mL (≈ 151 µM) |  |  |  |  |  |  |  |  | 
NCC1(CNc2nc(Nc3cccc(F)c3)nc(-c3cccc(F)c3)n2)CCCC1 | 32 µg/mL (≈ 78 µM) | 16 µg/mL (≈ 39 µM) | 32 µg/mL (≈ 78 µM) | 8 µg/mL (≈ 19.5 µM) |  |  |  |  |  |  |  |  | 
NCCCCCNc1nc(Nc2cccc(F)c2)nc(-c2cccc(O)c2)n1 | 8 µg/mL (≈ 20.9 µM) | 8 µg/mL (≈ 20.9 µM) | 8 µg/mL (≈ 20.9 µM) | 32 µg/mL (≈ 83.7 µM) |  |  |  |  |  |  |  |  | 
NCCCCCNc1nc(-c2cccc(F)c2)nc(-c2cccc(F)c2)n1 | 8 µg/mL (≈ 21.7 µM) | 2 µg/mL (≈ 5.41 µM) |  | 4 µg/mL (≈ 10.8 µM) |  |  |  |  |  |  |  |  | 
NCCCCCNc1nc(NCCc2ccc(O)cc2)nc(-c2cccc(F)c2)n1 | 16 µg/mL (≈ 39 µM) | 8 µg/mL (≈ 19.5 µM) | 8 µg/mL (≈ 19.5 µM) | > 100 µg/mL | > 100 µg/mL |  |  |  |  |  |  |  | 
NCCN(CCN)c1nc(NCCc2ccc(O)cc2)nc(-c2cccc(F)c2)n1 | 8 µg/mL (≈ 19.4 µM) | 4 µg/mL (≈ 9.72 µM) | 8 µg/mL (≈ 19.4 µM) | > 100 µg/mL | > 100 µg/mL |  |  |  |  |  |  |  | 
NCCCCCNc1nc(NCCc2ccc(O)cc2)nc(-c2ccc(F)cc2)n1 |  |  | 4 µg/mL (≈ 9.74 µM) | > 100 µg/mL | > 100 µg/mL |  |  |  |  |  |  |  | 
NCCCCCNc1nc(NCCc2ccc(O)cc2)nc(Nc2ccc(F)cc2)n1 | 128 µg/mL (≈ 301 µM) | 64 µg/mL (≈ 150 µM) | 16 µg/mL (≈ 37.6 µM) | > 100 µg/mL | > 100 µg/mL | 128 µg/mL (≈ 301 µM) | 64 µg/mL (≈ 150 µM) | 128 µg/mL (≈ 301 µM) | 32 µg/mL (≈ 75.2 µM) | 64 µg/mL (≈ 150 µM) | 64 µg/mL (≈ 150 µM) | 64 µg/mL (≈ 150 µM) | 32 µg/mL (≈ 75.2 µM)
NCCCCCNc1nc(Nc2ccc(F)cc2)nc(-c2cccc(F)c2)n1 | 8 µg/mL (≈ 20.8 µM) | 2 µg/mL (≈ 5.2 µM) | 4 µg/mL (≈ 10.4 µM) | 4 µg/mL (≈ 10.4 µM) |  |  |  |  |  |  |  |  | 
NCCCCCNc1nc(Nc2cccc(F)c2)nc(-c2ccc(F)cc2)n1 | 8 µg/mL (≈ 20.8 µM) | 2 µg/mL (≈ 5.2 µM) | 4 µg/mL (≈ 10.4 µM) | 4 µg/mL (≈ 10.4 µM) |  |  |  |  |  |  |  |  | 
NCCCCCNc1nc(Nc2cccc(F)c2)nc(-c2ccccc2F)n1 | 8 µg/mL (≈ 20.8 µM) | 4 µg/mL (≈ 10.4 µM) | 64 µg/mL (≈ 166 µM) | 16 µg/mL (≈ 41.6 µM) |  |  |  |  |  |  |  |  | 
NCCCCCNc1nc(Nc2cccc(C(F)(F)F)c2)nc(-c2cccc(F)c2)n1 | 4 µg/mL (≈ 9.21 µM) | 8 µg/mL (≈ 18.4 µM) | 16 µg/mL (≈ 36.8 µM) | 16 µg/mL (≈ 36.8 µM) |  |  |  |  |  |  |  |  | 
NCCN(CCN)c1nc(NCCc2ccc(O)cc2)nc(-c2ccc(F)cc2)n1 | 16 µg/mL (≈ 38.9 µM) | 8 µg/mL (≈ 19.4 µM) | 16 µg/mL (≈ 38.9 µM) | 32 µg/mL (≈ 77.8 µM) |  |  |  |  |  |  |  |  | 
NCCCCCCCNc1nc(Nc2cccc(F)c2)nc(-c2cccc(F)c2)n1 | 16 µg/mL (≈ 38.8 µM) | 8 µg/mL (≈ 19.4 µM) | 16 µg/mL (≈ 38.8 µM) | 64 µg/mL (≈ 155 µM) |  |  |  |  |  |  |  |  | 
NCCCCCNc1nc(Nc2cccc(F)c2)nc(-c2cccc(F)c2)n1 | 4 µg/mL (≈ 10.4 µM) | 8 µg/mL (≈ 20.8 µM) | 8 µg/mL (≈ 20.8 µM) | 8 µg/mL (≈ 20.8 µM) | 8 µg/mL (≈ 20.8 µM) | 8 µg/mL (≈ 20.8 µM) | 8 µg/mL (≈ 20.8 µM) | 8 µg/mL (≈ 20.8 µM) | 2 µg/mL (≈ 5.2 µM) | 4 µg/mL (≈ 10.4 µM) | 8 µg/mL (≈ 20.8 µM) | 8 µg/mL (≈ 20.8 µM) | 16 µg/mL (≈ 41.6 µM)
NCc1ccc(CNc2nc(Nc3cccc(F)c3)nc(-c3cccc(F)c3)n2)cc1 | 8 µg/mL (≈ 19.1 µM) | 4 µg/mL (≈ 9.56 µM) | 16 µg/mL (≈ 38.2 µM) | 16 µg/mL (≈ 38.2 µM) |  |  |  |  |  |  |  |  | 
NCCCCCNc1nc(Nc2cccc(F)c2)nc(-c2cccnc2)n1 | 16 µg/mL (≈ 43.5 µM) | 8 µg/mL (≈ 21.8 µM) | > 100 µg/mL | > 100 µg/mL | > 100 µg/mL |  |  |  |  |  |  |  | 
C[C@@H]1[C@H](O)[C@@H](C)/C=C/C=C/C=C/C=C/C=C/C=C/C=C/[C@H](O[C@@H]2O[C@H](C)[C@@H](O)[C@H](N)[C@@H]2O)C[C@@H]2O[C@](O)(C[C@@H](O)C[C@@H](O)[C@H](O)CC[C@@H](O)C[C@@H](O)CC(=O)O[C@H]1C)C[C@H](O)[C@H]2C(=O)O [AMPHOTERICIN B] |  |  |  | 1 µg/mL (≈ 1.08 µM) |  |  |  |  |  |  |  |  | 
O=C(O)c1cn(C2CC2)c2cc(N3CCNCC3)c(F)cc2c1=O [CIPROFLOXACIN] | > 16 µg/mL | > 16 µg/mL |  |  |  | > 16 µg/mL | > 16 µg/mL | > 16 µg/mL | 0.12 µg/mL (≈ 0.362 µM) | > 16 µg/mL | 1 µg/mL (≈ 3.02 µM) | > 16 µg/mL | 0.5 µg/mL (≈ 1.51 µM)
CN[C@@H]1[C@H](O[C@H]2[C@H](O[C@H]3[C@H](O)[C@@H](O)[C@H](N=C(N)N)[C@@H](O)[C@@H]3N=C(N)N)O[C@@H](C)[C@]2(O)C=O)O[C@@H](CO)[C@H](O)[C@H]1O.CN[C@@H]1[C@H](O[C@H]2[C@H](O[C@H]3[C@H](O)[C@@H](O)[C@H](N=C(N)N)[C@@H](O)[C@@H]3N=C(N)N)O[C@@H](C)[C@]2(O)C=O)O[C@@H](CO)[C@H](O)[C@H]1O.O=S(=O)(O)O.O=S(=O)(O)O.O=S(=O)(O)O [STREPTOMYCIN SULFATE] | > 16 µg/mL | > 16 µg/mL | 8 µg/mL |  |  |  |  |  |  |  |  |  | 
